Measurements from the supplement of paper PMC11451515.

Assays:
Settings in all cases: 48 h
NOMO1 [1] = experiment: AUC of viability dose-response curve (% viability x log10 dose units); higher = less sensitive
Summary of the method: (§1)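 Over 48 h at 37°C, leukemia cells in 1536-well plates (500 or 1000 cells/well), adapted to each medium, received library compounds in DMSO at 11 threefold doses from 47 μM to 0.79 nM. CellTiter-Glo One luminescence, normalised per plate to DMSO and cell-free wells, was fitted by a four-parameter log-logistic function of log10 dose. The area under the curve was then integrated by trapezoidal rule, after scaling curves above full viability and removing those that failed quality control.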

P12-Ichikawa [2] = experiment: as above
Summary of the method: as §1

SEM cells [3] = experiment: as above
Summary of the method: as §1

NOMO1 [4] = experiment: cell viability relative to DMSO control; higher = less cytotoxic
Summary of the method: (§2)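 Library compounds in DMSO were pin-dosed into 1536-well plates (5 μl) holding NOMO1 or SEM (500 cells/well) or P12-Ichikawa (1000 cells/well) leukemia cells, across an 11-point threefold series of 47 μM to 0.79 nM. Each cell line had been adapted for at least four passages in each medium. CellTiter-Glo One luminescence was read after 48 h at 37°C. Viability is the per-plate percentage relative to DMSO wells, with cell-free wells as background.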

P12-Ichikawa [5] = experiment: as above
Summary of the method: as §2

SEM cells [6] = experiment: as above
Summary of the method: as §2

NC(CO)C(=O)NNCc1ccc(O)c(O)c1O (stereo not drawn)
AUC of viability dose-response curve
Settings	NOMO1 [1]	P12-Ichikawa [2]	SEM cells [3]
HPLM + 10% dialyzed FBS	448	450	450
RPMI 5 mM glucose + 10% FBS	431	435	439
RPMI 5 mM glucose + 10% dialyzed FBS	454	428	437

cell viability [%]
Settings	NOMO1 [4]	P12-Ichikawa [5]	SEM cells [6]
HPLM + 10% dialyzed FBS, 0.000781 µM	96.1	103	93.3
HPLM + 10% dialyzed FBS, 0.00234 µM	104	93.7	116
HPLM + 10% dialyzed FBS, 0.00702 µM	106	99.7	105
HPLM + 10% dialyzed FBS, 0.0211 µM	93.5	103	89.9
HPLM + 10% dialyzed FBS, 0.0632 µM	107	103	106
HPLM + 10% dialyzed FBS, 0.19 µM	107	100	99.8
HPLM + 10% dialyzed FBS, 0.569 µM	91.6	87.9	102
HPLM + 10% dialyzed FBS, 1.71 µM	88.1	90.7	103
HPLM + 10% dialyzed FBS, 5.12 µM	90.6	90.9	104
HPLM + 10% dialyzed FBS, 15.4 µM	89	92.2	89.4
HPLM + 10% dialyzed FBS, 46.1 µM	77.2	54	84.2
RPMI 5 mM glucose + 10% FBS, 0.000781 µM	85.6	96.5	99.8
RPMI 5 mM glucose + 10% FBS, 0.00234 µM	101	100	104
RPMI 5 mM glucose + 10% FBS, 0.00702 µM	96.3	99.6	101
RPMI 5 mM glucose + 10% FBS, 0.0211 µM	95.9	91	84.7
RPMI 5 mM glucose + 10% FBS, 0.0632 µM	94.4	105	101
RPMI 5 mM glucose + 10% FBS, 0.19 µM	94.1	99.5	105
RPMI 5 mM glucose + 10% FBS, 0.569 µM	89.4	91.7	98.3
RPMI 5 mM glucose + 10% FBS, 1.71 µM	85	92.8	96.1
RPMI 5 mM glucose + 10% FBS, 5.12 µM	84.3	93.6	72.9
RPMI 5 mM glucose + 10% FBS, 15.4 µM	83.7	81	99
RPMI 5 mM glucose + 10% FBS, 46.1 µM	82.9	19.1	12.6
RPMI 5 mM glucose + 10% dialyzed FBS, 0.000781 µM	89.4	99.9	103
RPMI 5 mM glucose + 10% dialyzed FBS, 0.00234 µM	102	89	105
RPMI 5 mM glucose + 10% dialyzed FBS, 0.00702 µM	107	94	104
RPMI 5 mM glucose + 10% dialyzed FBS, 0.0211 µM	90.8	98.3	89.2
RPMI 5 mM glucose + 10% dialyzed FBS, 0.0632 µM	98.8	96.5	95
RPMI 5 mM glucose + 10% dialyzed FBS, 0.19 µM	102	93.7	88.5
RPMI 5 mM glucose + 10% dialyzed FBS, 0.569 µM	91.9	88.6	100
RPMI 5 mM glucose + 10% dialyzed FBS, 1.71 µM	90	94.2	91.4
RPMI 5 mM glucose + 10% dialyzed FBS, 5.12 µM	96	85.3	90.5
RPMI 5 mM glucose + 10% dialyzed FBS, 15.4 µM	92.7	91.4	87.8
RPMI 5 mM glucose + 10% dialyzed FBS, 46.1 µM	82.6	26.5	18
